Assay results as given in patent US7635720B2, “Prostaglandin analog compositions to treat epithelial-related conditions” (Meta Cosmetics, LLC, priority 2007, dated 2009).
“And” between values parts separate entries of the source, which are not always exact repeats. Equal entries are not always repeated. “Also recorded” adds a separate entry of the source.

What was measured:
[1] = Bovine cornea hydrolysis assay; format: in vitro ADME; settings: for % Hydrolyzed after 12 hr (negative control): PBS pH 7.4 only, no cornea, 37° C.; for % Hydrolyzed after 12 hr, Avg: average of cornea samples 1-3; for % Hydrolyzed after 12 hr: one bovine cornea in 10 ml PBS pH 7.4, 37° C., 250 μg compound, individual cornea samples 1-3
Source text: A bovine cornea hydrolysis test system (K. M. Maxey, et al., “The Hydrolysis of Bimatoprost in Corneal Tissue Generates a Potential Prostanoid FP Receptor Agonist,” Survey of Ophthalmology, 47 (Suppl 1):S34-40 (2002)) has been used to determine whether four test compounds of the present invention, namely 16-phenoxy PGF2α cyclopropyl amide; 17-phenyl trinor PGF2α cyclopropyl amide; 16-phenoxy PGF2α cyclopropyl methyl amide; and 17-phenyl trinor PGF2α cyclopropyl methyl amide, react similarly to bimatoprost in this test system.
Bovine corneas are excised within 1-2 hour of death. For each compound tested, one cornea (0.6 g) is placed into an 18 mm×150 mm glass test tube containing 10 ml of phosphate-buffered saline (“PBS”) at pH 7.4. The compound of interest (250 μg in about 120 μl ethanol) is added to each test tube containing a cornea and to a tube containing only 10 ml of PBS (no cornea), which served as a negative control. Test tubes are covered with parafilm and incubated at 37° C. with shaking.
After the first time point, a 5 ml aliquot is removed from each test tube and transferred into another marked test tube. The remaining material continues to incubate at 37° C. until subsequent test time point(s) is/are reached. For each test tube, 1.0 ml of 5% KHSO4 is added to bring the pH down to about 3 and sufficient NaCl is added to saturate the solution; the solution then is extracted three times with 80% ethyl acetate-hexane. The solvent is evaporated under nitrogen, dissolved in 200 μl of 80% ethyl acetate-hexane, and the 200 μl sample then transferred to a 2 ml screw cap vial. Samples are stored at −20° C. until run on an HPLC column.
After the second time point, the cornea is removed from each experimental test tube. For each test tube, 1.0 ml of 5% KHSO4 is added to bring the pH down to about 3 and sufficient NaCl added to saturate the solution; the solution then is extracted three times with 80% ethyl acetate-hexane. The solvent is evaporated under nitrogen, dissolved in 200 μl of 80% ethyl acetate-hexane, and the 200 μl sample then transferred to 2 ml screw cap vials. Samples are stored at −20° C. until they are run on an HPLC column.
For HPLC, samples are run on a Beckman Ultrasphere ODS analytical C18 HPLC column (5μ, 4.6 mm×25 cm) at 1 ml/min using either 60:40:0.1 or 70:30:0.1 methanol:water:acetic acid as solvent. Absorbance is monitored at 210 nm.

[2] = test system: eyelashes; experiment: Use for restoring eyelashes: transparent gel applied nightly at the skin-eyelash border, volunteers; format: in vivo, human
Source text: In one embodiment, the composition of the present invention is a transparent gel formulated according to Table 2. The formulation comprises water, at least one prostaglandin analog according to the present invention (concentration about 0.001% to about 0.05% w/w of the composition); a thickener, optionally a hair stimulating agent; caffeine, and at least one penetrating agent and the pH adjusted to 7.2. The gel is applied as a fine line at the skin-eyelash border every night on clean dry eyes. The gel is aqueous enough to spread to the hair follicles but thick enough not to drip.
In another embodiment, the composition is a transparent gel formulated to comprise at least one of 16-phenoxy PGF2α cyclopropyl amide; 17-phenyl trinor PGF2α cyclopropyl amide; 16-phenoxy PGF2α cyclopropyl methyl amide; or 17-phenyl trinor PGF2α cyclopropyl methyl amide (concentration about 0.001% to about 0.05% w/w of the composition) plus the following ingredients (Table 3):
(§1) Test formulations contained either 0.025% or 0.05% 16-phenoxy PGF2α cyclopropyl amide. The formulation containing 0.025% 16-phenoxy PGF2α cyclopropyl amide was used on the left side, and the formulation containing 0.05% 16-phenoxy PGF2α cyclopropyl amide was used on the right side. Test formulations were given randomly to volunteers without consideration of coloration of eyelashes, race, ethnicity or sex.

[3] = test system: eyebrows; experiment: Use for restoring eyebrows: transparent gel applied nightly at the browbone, volunteers; format: in vivo, human
Source text: A composition prepared according to the present invention is formulated as a transparent gel as described in the two described embodiments of Example 2. The formulation comprises water, at least one prostaglandin analog according to the present invention (concentration about 0.001% to about 0.05% w/w of the composition); a thickener, optionally a hair stimulating agent; caffeine, and at least one penetrating agent and the pH adjusted to 7.2. The gel is applied by brush as a line at the browbone every night on clean, oil-free brows in the absence of makeup. The gel is sufficiently aqueous to spread to the hair follicles but thick enough not to drip.
as §1

[4] = test system: eyelashes; settings: background statement; cited from earlier work
[5] = 0.025% formulation left, 0.05% right
[6] = gel 0.025% / 0.05% nightly, single subject

Structure (SMILES): O=C(CCC/C=C\C[C@@H]1[C@@H](/C=C/[C@@H](O)COc2ccccc2)[C@H](O)C[C@@H]1O)NC1CC1 [16-phenoxy PGF2α cyclopropyl amide, 16-phenoxy tetranor PGF2α cyclopropyl amide]
- % Hydrolyzed after 12 hr (negative control) [1]: 0%
- % Hydrolyzed after 12 hr, Avg [1]: 1.78%
- % Hydrolyzed after 12 hr [1]: 2.0% and 1.89% and 1.44%
- left side (0.025%) versus right side (0.05%), eyelashes [2, 5]: no significant difference; also recorded: Right side was faster to grow; also recorded: Subject thought right side was better; also recorded: Subject thought left side was better
- increase in eyelash length ([2]; gel 0.025% (left) / 0.05% (right) nightly, single subject, final result or time not given): about 55% and approximately 80% and approximately 45% and 50% and 45% and approximately 60% and 100% and 45-50%
- eyelash appearance (in words) [2, 6]: darker, fuller and showed an upward curving angle of growth; also recorded: much thicker, fuller, longer and curvier than before use; also recorded: Lashes grew so much that by week 4 the test was discontinued because eyelashes were too long; also recorded: darker, fuller, and longer; also recorded: thicker and darker and curled upwards; also recorded: much thicker after 2 weeks; also recorded: much darker, thicker; also recorded: darker, and curved upwards; also recorded: longer, thicker and darker; also recorded: bushy, very thick, dark; also recorded: eyelashes had grown to the point of clear visibility below lids; also recorded: darker, thicker and lashes curled up; also recorded: darker and more upturned; also recorded: Noticeable improvement after 4 weeks even without mascara
- time by which increase in eyelash length / growth was obvious [2, 6]: about 3 weeks and ≤ 3 weeks and ≤ 2 weeks
- time to some thickening of eyelashes [2, 6]: ≤ 10 days
- increase in eyelash length ([2]; gel 0.025% / 0.05% nightly, single subject, 3 weeks): 40% and 30%
- increase in eyelash length ([2]; gel 0.025% / 0.05% nightly, single subject, 4 weeks): about 50% and 50% and approximately 60%
- increase in eyelash length ([2]; gel 0.025% / 0.05% nightly, single subject, 5 weeks): Approximately 60%; also recorded: about 100%; also recorded: approximately 45%
- increase in eyelash length ([2]; gel 0.025% / 0.05% nightly, single subject, 6 weeks): 100% and ~45% and 50%
- increase in eyelash length ([2]; gel 0.025% / 0.05% nightly, single subject, after two months): approximately 55%
- increase in numbers of eyelashes ([2]; gel 0.025% / 0.05% nightly, single subject, final or peak result): 60% and 30% and 50%
- increase in eyelash thickness ([2]; gel 0.025% / 0.05% nightly, single subject, final result): approximately doubled and approximately 60% and 100% and ~100%
- tolerability of the product ([2]; subjects with dry eye): tolerated the product well
- left side (0.025%) versus right side (0.05%), eyebrows [3, 5]: no significant difference
- eyebrow hair result (in words) ([3]; gel 0.025% (left) / 0.05% (right) nightly, single subject): noticeable increase in number of hairs and color after 2 weeks; also recorded: Hairs started to fill in

Structure (SMILES): O=C(CCC/C=C\C[C@@H]1[C@@H](/C=C/[C@@H](O)COc2ccccc2)[C@H](O)C[C@@H]1O)NCC1CC1 [16-phenoxy tetranor PGF2α cyclopropyl methyl amide]
- % Hydrolyzed after 12 hr (negative control) [1]: 0%
- % Hydrolyzed after 12 hr, Avg [1]: 1.22%
- % Hydrolyzed after 12 hr [1]: 1.28% and 1.18% and 1.2%

Structure (SMILES): O=C(CCC/C=C\C[C@@H]1[C@@H](/C=C/[C@@H](O)CCc2ccccc2)[C@H](O)C[C@@H]1O)NCC1CC1 [17 phenyl trinor PGF2α cyclopropyl methyl amide]
- % Hydrolyzed after 12 hr (negative control) [1]: 0%
- % Hydrolyzed after 12 hr, Avg [1]: 0.91%
- % Hydrolyzed after 12 hr [1]: 0.83% and 0.8% and 1.1%

Structure (SMILES): O=C(CCC/C=C\C[C@@H]1[C@@H](/C=C/[C@@H](O)CCc2ccccc2)[C@H](O)C[C@@H]1O)NC1CC1 [17-phenyl trinor PGF2α cyclopropyl amide, 17 phenyl trinor PGF2α cyclopropylamide]
- % Hydrolyzed after 12 hr (negative control) [1]: 0%
- % Hydrolyzed after 12 hr, Avg [1]: 1.82%
- % Hydrolyzed after 12 hr [1]: 1.31% and 2.0% and 2.15%

Structure (SMILES): CCNC(=O)CCC/C=C\C[C@@H]1[C@@H](/C=C/[C@@H](O)CCc2ccccc2)[C@H](O)C[C@@H]1O [Bimatoprost, cyclopentane N-ethyl heptenamide-5-cis-2-(3α-hydroxy-5-phenyl-1-trans-pentenyl)-3,4-dihydroxy, [1α, 2β, 3α, 5α]]
- effect on eyelash growth (in words) [4]: effective to increase the growth of eyelashes
- incidence of hyperemia [4]: highest incidence of hyperemia
- negative side effects [4]: redness and discoloration along the periocular skin; eye irritation; and foreign body sensation

Structure (SMILES): CC(C)OC(=O)CCC/C=C\C[C@@H]1[C@@H](CC[C@@H](O)CCc2ccccc2)[C@H](O)C[C@@H]1O [Latanoprost]
- effect on eyelash growth (in words) [4]: works poorly on eyelashes

Structure (SMILES): CC(C)OC(=O)CCC/C=C\C[C@@H]1[C@@H](/C=C/[C@@H](O)COc2cccc(C(F)(F)F)c2)[C@H](O)C[C@@H]1O [Travaprost, isopropyl (Z)-7-[(1R,2R,3R,5S)-3,5-dihydroxy-2-[(1E,3R)-3-hydroxy-4-[(α,α,α-trifluoro-m-tolyl)oxy]-1-butenyl]cyclopentyl]-5-heptenoate]
- effect on eyelash growth (in words) [4]: does not work well for eyelash growth, taking longer than other like products
